Test results as given in patent US20220154189A1, “COMPOSITIONS AND METHODS FOR THE TREATMENT OF KRAS ASSOCIATED DISEASES OR DISORDERS” (Dicerna Pharmaceuticals, Inc., priority 2019, published 2022).

Tests used:
[1] = test system: Pan02 tumors; assay: tumor growth inhibition, Pan02 tumors in C57BL/6 mice; assay type: in vivo, mouse
Description: (§1) 6 to 8 week old immunocompetent or immunocompromised mice (C57BL/6/Nude) were injected subcutaneously with 2×10^6 Pan02 (mouse pancreatic cell line) or 5×10^6 Panc1 (human pancreatic cell line) tumor cells under the right shoulder. Tumor volume was measured every 2-3 days a week to monitor tumor growth. Dosing was initiated when the tumors reached about 200 mm^3. For tumor growth inhibition studies, animals were randomized and assigned to different cohorts and subjected to dosing cycles. KRAS1-formulated LNP (“KRAS/LNP”) or Placebo (scrambled KRAS dsRNAi) formulated LNP was given intravenously via lateral tail vein at a total volume of 10 ml/kg. Immuno-modulatory agents (CSF1 antibody, TGF-β inhibitor, or checkpoint inhibitors) were given intraperitoneally or orally at a volume of 10 ml/kg. Trametinib (MEK inhibitor) was given orally at a total volume of 10 ml/kg.
(§2) Mouse pancreatic cell line Pan02 was obtained from NCI, and human pancreatic cell line Panc1 cells were obtained from ATCC (Manassas, Va.) and grown in RPMI/DMEM medium supplemented with 10% FBS. Pan02 is a murine PDAC cell line with KRAS G12D mutation. Panc1 is a human PDAC cell line with KRAS G1D mutation.
To see if the KRAS knockdown observed could be translated into growth inhibition, Pan02 tumors were implanted as described above, and when they reached the right sizes (e.g., about 200 mm^3), they were sorted and treated with KRAS/LNP or Placebo/LNP (cKras) at 10 mpk once a week for 3 weeks, and the tumor growth was monitored.

[2] = test system: Pan02 tumors; assay: qPCR of tumor microenvironment and stromal activation marker mRNAs in Pan02 tumors; assay type: in vivo, mouse
Description: To see if a single KRAS/LNP treatment would lead to modulation of the tumor microenvironment, samples from the study described in Example 3 (FIGS. 5A-B) were analyzed for certain T-cell markers (CD8 and FoxP3) and chemokines (CXCL1). FoxP3 is a marker for immunosuppressive T cells (Tregs), which play an important role in regulating or suppressing other cells of the immune system. CXCL1 is a chemokine that actively recruits suppressive molecules such as Tregs and myeloid-derived suppressor cells to the tumor microenvironment.
To see if continuous KRAS inhibition would lead to modulation of the tumor microenvironment, Pan02 tumors from the efficacy study described in Example 3 (FIG. 6) were collected 24 hours after the last dose and subjected to qPCR to measure mRNAs of immune cell markers (CD8, FoxP3), immune suppressive cytokines (CXCL1, CXCL5, and IL10), immune checkpoints (PD-L1) or stromal activation markers (TGF-0, Axin2, ROBO1, and CSF3). […] This in turn led to down-regulation of several key suppressive molecules (FoxP3, CXCL1, and CXCL5). […]
A similar study was repeated in Pan02 tumors as well. […] In this case, tumors were collected and analyzed for the mRNA markers that contribute to modulation of the tumor microenvironment and stromal activation.

[3] = test system: Panc1 tumors; assay: tumor growth inhibition, human PDAC Panc1 tumors in nude mice; assay type: in vivo; conditions: gemcitabine 50 mpk, several rounds
Description: as §1
as §2, with “[…] mutation. […]” for “G1D mutation.”

[4] = test system: Cd274 (PD-L1) mRNA; assay: mRNA analysis of Cd274 (PD-L1) in Panc1 tumors; assay type: in vivo, human; conditions: MEKi+KRAS DsiRNA treatment
Description: (§3) To see how trametinib performed in human PDAC, Panc1 tumors were implanted as described above and treated with trametinib (3 mg/kg/dose) as shown in FIG. 12A. Tumor measurements were taken throughout the entire study period to monitor the tumor growth. […] Tumors were collected before and after KRAS/LNP treatments for mRNA analysis.

[5] = test system: KRAS; assay: mRNA analysis of KRAS in trametinib-resistant Panc1 tumors; assay type: in vivo, human; conditions: trametinib-resistant Panc1 tumors after KRAS/LNP 5 mpk (qdx3), compared to resistant tumors without KRAS/LNP
Description: as §3

[6] = test system: Pan02 tumors; assay: FoxP3 and CD8 immunohistochemistry of Pan02 tumors; assay type: in vivo, mouse; conditions: KRAS DsiRNA combined with an MEK inhibitor
[7] = test system: KRAS mRNA; assay: in vitro screen of KRAS DsiRNA constructs, KRAS mRNA expression in MIA PaCa2 cells; assay type: cell-based, human; conditions: lipofectamine, 1 nM and 0.1 nM, 24 hours
Text: A nucleic acid inhibitor molecule that targets the KRAS gene (KRAS1) was constructed. First, several 25/27-mer KRAS DsiRNAs (with no modifications except for three methyls on the 3′ end of the guide strand) were selected. These constructs were then converted into a nicked-tetraloop format, using the U/GG convention as 22-mers, such that bases came off the guide strand starting from the 5′ end. These DsiRNAs were screened in human pancreatic carcinoma (MIA PaCa2) cells in vitro using lipofectamine at 1 nM and 0.1 nM concentrations of each construct to determine the potency.

[8] = test system: KRAS mRNA; assay: KRAS mRNA expression in mouse tumor models using MIA PaCa2 and LS411N tumor cells; assay type: in vivo, human; conditions: MIA PaCa 2 and LS411N tumor models, LNP-formulated tetraloops, 3 mg/kg daily for three days, 24 hours after
Description: FIG. 3B is a column scatter plot showing KRAS mRNA expression levels in a mouse tumor model using MIA PaCa2 tumor cells 24 hours after three-day daily administration of 3 mg/kg of KRAS nucleic acid inhibitor molecules as described in Example 1 and shown in FIG. 3A.
FIG. 3C is a column scatter plot showing KRAS mRNA expression levels in a mouse tumor model using MIA LS411N tumor cells 24 hours after three-day daily administration of 3 mg/kg of KRAS nucleic acid inhibitor molecules as described in Example 1 and shown in FIG. 3A.
The tetraloop sequences were tested in tumor models using MIA PaCa 2 and colon cancer LS411N cell lines. The best two from this screen (KRAS-465T and KRAS-446T) were then further modified to have a 4′-oxymethylphosphonate modification on the nucleotide at the 5′-end of the antisense strand (KRAS-465T/MOP and KRAS-446T/MOP). The sense strand of KRAS-465T/MOP contains SEQ ID NO: 13 (5′-[…]-3′), and the antisense strand of KRAS-465T/MOP contains SEQ ID NO: 14 (3′-[…]-5′, wherein underlining indicates a 4′-oxymethylphosphonate modification). The sense strand of KRAS-446T/MOP contains SEQ ID NO: 15 (5′-[…]-3′), and the antisense strand of KRAS-446T/MOP contains SEQ ID NO: 16 (3′-[…]-5′, wherein underlining indicates a 4′-oxymethylphosphonate modification).

[9] = Pan02 tumors, gemcitabine treatment without KRAS/LNP
[10] = Pan02 tumors, continuous KRAS inhibition (10 mpk weekly x3), 24 hours after last dose
[11] = Pan02 tumors, single KRAS/LNP treatment 10 mg/kg, 24 hours after last dose

## Cc1cccc(-c2nn3c(c2-c2ccnc4ccc(C(N)=O)cc24)CCC3)n1 [galunisertib]
[1]; orally 75 mpk (BID×2/cycle) for 2 weeks, vs Vehicle
  tumor growth inhibition: about 50%

## Nc1ccn([C@@H]2O[C@H](CO)[C@@H](O)C2(F)F)c(=O)n1 [gemcitabine, reference compound]
[2]; Pan02 tumors treated with gemcitabine until resistant
  CXCL1 mRNA levels: increased
[2]; [9]
  Axin2 mRNA (stromal activation marker): lower
  ROBO1 mRNA (stromal activation marker): lower
  TGF-β mRNA (stromal activation marker): lower
[3]
  tumor growth, response to treatment: responded nicely at the beginning, they became resistant after several rounds of treatment
[1]; continuous gemcitabine treatment
  tumor growth, response to treatment: became resistant

## KRAS1: tetraloop construct with 4′-oxymethylphosphonate at nucleotide 1 of the antisense strand; sense SEQ ID NO: 13, antisense SEQ ID NO: 14 (sense CUAAAUCAUUUGAAGAUAUAGCAGCCGAAAGGCUGC; antisense NAUAUCUUCAAAUGAUUUAGGG; tetraloop DsiRNA, 4'-oxymethylphosphonate on antisense 5'-terminal U, other modifications not given here)
[2]; [10]
  Axin2 mRNA (stromal activation marker): slightly increased
  CSF3 mRNA (stromal activation marker): slightly increased
  CXCL1 mRNA: down-regulation
  CXCL5 mRNA: down-regulation
  Cd8 mRNA: increased
  Cd274 (PD-L1) mRNA: increased
  FoxP3 mRNA: down-regulation
  ROBO1 mRNA (stromal activation marker): slightly increased
  TGF-0 mRNA (stromal activation marker): slightly increased
[2]; [11]
  CD8 mRNA expression level: unchanged
  CXCL1 mRNA expression level: significantly decreased
  FoxP3 mRNA expression level: significantly decreased
[2]; gemcitabine-resistant Pan02 tumors, single KRAS1 treatment
  CXCL1 mRNA levels: not brought down to baseline
[4]
  Cd274 (PD-L1) mRNA levels: increased
[1]; 10 mpk once a week for 3 weeks, i.v., vs Placebo/LNP
  tumor growth: complete growth inhibition
[5]
  KRAS knockdown: 40-50%
[6]
  CD8 expression by immunohistochemistry: increased
  FoxP3 expression by immunohistochemistry: reduced

## KRAS-194: 25/27-mer KRAS DsiRNA; sense strand SEQ ID NO: 1, antisense strand SEQ ID NO: 2 (sense GGCCUGCUGAAAAUGACUGAAUATA; antisense UAUAUUCAGUCAUUUUCAGCAGGCCUC; Dicer-substrate siRNA, chemical modification pattern not given here)
[7]
  KRAS mRNA expression, ranking of potency in the in vitro screen: best three

## KRAS-446: 25/27-mer KRAS DsiRNA; sense strand SEQ ID NO: 5, antisense strand SEQ ID NO: 6 (sense GUAUUUGCCAUAAAUAAUACUAAAT; antisense AUUUAGUAUUAUUUAUGGCAAAUACAC; Dicer-substrate siRNA, chemical modification pattern not given here)
[7]
  KRAS mRNA expression, ranking of potency in the in vitro screen: best three

## KRAS-446T: KRAS tetraloop construct; sense strand SEQ ID NO: 15, antisense strand SEQ ID NO: 19 (sense GUAUUUGCCAUAAAUAAUAAGCAGCCGAAAGGCUGC; antisense UUAUUAUUUAUGGCAAAUACGG; sense strand forms tetraloop hairpin, modification pattern not given here)
[8]
  KRAS mRNA expression, ranking in the tumor model screen: best two

## KRAS-465: 25/27-mer KRAS DsiRNA; sense strand SEQ ID NO: 3, antisense strand SEQ ID NO: 4 (sense CUAAAUCAUUUGAAGAUAUUCACCA; antisense UGGUGAAUAUCUUCAAAUGAUUUAGUA; Dicer-substrate siRNA, chemical modification pattern not given here)
[7]
  KRAS mRNA expression, ranking of potency in the in vitro screen: best three

## KRAS-465T: KRAS tetraloop construct; sense strand SEQ ID NO: 13, antisense strand SEQ ID NO: 18 (sense CUAAAUCAUUUGAAGAUAUAGCAGCCGAAAGGCUGC; antisense UAUAUCUUCAAAUGAUUUAGGG; sense strand forms tetraloop hairpin, modification pattern not given here)
[8]
  KRAS mRNA expression, ranking in the tumor model screen: best two
